Data published in patent US8017612B2, “Piperazine compound and use thereof as a HCV polymerase inhibitor” (priority 2006, dated 2011).

Assays:
[1] = biological target: T1, HCV polymerase (NS5B) type 1a (Hepatitis C virus genotype 1a, UniProt P26664); assay: Assay of enzyme (HCV polymerase) inhibitory activity, type 1a enzyme; assay type: biochemical, HCV type 1a (cloned from the blood of patients); conditions: HCV polymerase inhibitory activity IC50, 1a, type 1a enzyme
T1 construct: made in house; host or cells: Escherichia coli (by the 'similar method' of the 1b enzyme)
How it was run: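 NS5B Δ47 C-term His6 (type 1a, 1.5 μg/ml); substrate RNA 5 μg/ml; ATP/GTP/CTP 50 μM, UTP 2 μM + [5,6-3H]UTP; Tris pH 7.5, MgCl2 5 mM; 25° C, 60 min. TCA/pyrophosphate stop, GF/B filter, scintillation. IC50 vs no-compound control.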

[2] = biological target: T2, HCV polymerase (NS5B) type 1b (Hepatitis C virus genotype 1b, UniProt P26663); assay: Assay of enzyme (HCV polymerase) inhibitory activity, type 1b enzyme; assay type: biochemical, HCV BK strain (type 1b); conditions: HCV polymerase inhibitory activity IC50, 1b, type 1b enzyme
T2 construct: a region encoding NS5B (J Virol 1991 March, 65(3), 1105-13, 544 amino acids after deletion of 47 amino acids on the C-terminal); 6xHis (C); made in house; host or cells: Escherichia coli
How it was run: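 Rxn: NS5B 1b (BK, ΔC47, His6) 0.5 μg/ml; substrate RNA 5 μg/ml; ATP/GTP/CTP 50 μM, UTP 2 μM + [5,6-3H]UTP; 20 mM Tris pH 7.5, 5 mM MgCl2, 50 mM NaCl, 1 mM EDTA/DTT. 25 °C, 60 min. Stop with TCA/pyrophosphate, filter, scintillation count; IC50 vs. untreated.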

| SMILES | IC50 [1] [nM] | IC50 [2] [nM] |
| --- | --- | --- |
| CCCN1CCC(CNC(=O)[C@H]2CN(C(C)=O)CCN2S(=O)(=O)c2ccc(OC(F)(F)F)cc2)CC1 [Example 681, (R)-4-acetyl-1-(4-trifluoromethoxy-benzenesulfonyl)-piperazine-2-carboxylic acid (1-propyl-piperidin-4-ylmethyl)-amide] | > 1000 | > 1000 |
| CC(=O)N1CCN(S(=O)(=O)c2ccc(OC(F)(F)F)cc2)[C@@H](C(=O)NCCc2ccccc2O)C1 [Example 682, (R)-4-acetyl-1-(4-trifluoromethoxy-benzenesulfonyl)-piperazine-2-carboxylic acid [2-(2-hydroxy-phenyl)-ethyl]-amide] | > 1000 | > 1000 |
| CCC(F)(F)c1ccc(CNC(=O)[C@H]2CN(c3cnc4cncnc4n3)CCN2S(=O)(=O)c2ccc(Br)cc2)cc1 [Example 683, (R)-1-(4-bromo-benzenesulfonyl)-4-pteridin-7-yl-piperazine-2-carboxylic acid 4-(1,1-difluoro-propyl)-benzylamide] | < 100 | < 100 |
| CCC(F)(F)c1ccc(CNC(=O)[C@H]2CN(c3cnc4cc(Br)ccc4n3)CCN2S(=O)(=O)c2ccc(OC(F)(F)F)cc2)cc1 [Example 684, (R)-4-(6-bromo-quinoxalin-2-yl)-1-(4-trifluoromethoxy-benzenesulfonyl)-piperazine-2-carboxylic acid 4-(1,1-difluoro-propyl)-benzylamide] | 100 to 1000 | 100 to 1000 |
| CCC(F)(F)c1ccc(CNC(=O)[C@H]2CN(c3cnc4ccc(Br)cc4n3)CCN2S(=O)(=O)c2ccc(OC(F)(F)F)cc2)cc1 [Example 685, (R)-4-(7-bromo-quinoxalin-2-yl)-1-(4-trifluoromethoxy-benzenesulfonyl)-piperazine-2-carboxylic acid 4-(1,1-difluoro-propyl)-benzylamide] | 100 to 1000 | 100 to 1000 |
| CCC(F)(F)c1ccc(CNC(=O)[C@H]2CN(c3cnc4cncnc4n3)CCN2S(=O)(=O)c2ccc(C(F)(F)F)cc2)cc1 [Example 686, (R)-4-pteridin-7-yl-1-(4-trifluoromethyl-benzenesulfonyl)-piperazine-2-carboxylic acid 4-(1,1-difluoro-propyl)-benzylamide] | < 100 | < 100 |
| CCCc1ccc(CNC(=O)[C@H]2CN(c3cnc(C(=O)O)cn3)CCN2S(=O)(=O)c2ccc(Br)cc2)cc1 [Example 687, (R)-4-(4-bromo-benzenesulfonyl)-3-(4-propyl-benzylcarbamoyl)-3,4,5,6-tetrahydro-2H-[1,2′]bipyrazinyl-5′-carboxylic acid] | < 100 | < 100 |
| CCC(F)(F)c1ccc(CNC(=O)[C@H]2CN(c3cnc4cc(Cl)ccc4n3)CCN2S(=O)(=O)c2ccc(OC(F)(F)F)cc2)cc1 [Example 688, (R)-4-(6-chloro-quinoxalin-2-yl)-1-(4-trifluoromethoxy-benzenesulfonyl)-piperazine-2-carboxylic acid 4-(1,1-difluoro-propyl)-benzylamide] | 100 to 1000 | 100 to 1000 |
| CC(C)(C)c1ccc(CNC(=O)[C@H]2CN(c3cnc4cnccc4n3)CCN2S(=O)(=O)c2ccc(OC(F)(F)F)cc2)cc1 [Example 689, (R)-4-pyrido[3,4-b]pyrazin-2-yl-1-(4-trifluoromethoxy-benzenesulfonyl)-piperazine-2-carboxylic acid 4-tert-butyl-benzylamide] | < 100 | < 100 |
| CCC(F)(F)c1ccc(CNC(=O)[C@H]2CN(c3cnc4nsnc4n3)CCN2S(=O)(=O)c2ccc(OC(F)(F)F)cc2)cc1 [Example 691, (R)-4-[1,2,5]thiadiazolo[3,4-b]pyrazin-5-yl-1-(4-trifluoromethoxy-benzenesulfonyl)-piperazine-2-carboxylic acid 4-(1,1-difluoro-propyl)-benzylamide] | < 100 | < 100 |
| CCC(F)(F)c1ccc(CNC(=O)[C@H]2CN(c3cnc4cnc(C)nc4n3)CCN2S(=O)(=O)c2ccc(OC(F)(F)F)cc2)cc1 [Example 692, (R)-4-(2-methyl-pteridin-7-yl)-1-(4-trifluoromethoxy-benzenesulfonyl)-piperazine-2-carboxylic acid 4-(1,1-difluoro-propyl)-benzylamide] | < 100 | < 100 |
| CCOC(=O)c1ccc2nc(N3CCN(S(=O)(=O)c4ccc(OC(F)(F)F)cc4)[C@@H](C(=O)NCc4ccc(C(F)(F)CC)cc4)C3)cnc2c1 [Example 693, 2-[(R)-3-[4-(1,1-difluoro-propyl)-benzylcarbamoyl]-4-(4-trifluoromethoxy-benzenesulfonyl)-piperazin-1-yl]-quinoxaline-6-carboxylic acid ethyl ester] | > 1000 | 100 to 1000 |
| CCC(F)(F)c1ccc(CNC(=O)[C@H]2CN(c3nc4cnncc4s3)CCN2S(=O)(=O)c2ccc(OC(F)(F)F)cc2)cc1 [Example 694, (R)-4-thiazolo[4,5-d]pyridazin-2-yl-1-(4-trifluoromethoxy-benzenesulfonyl)-piperazine-2-carboxylic acid 4-(1,1-difluoro-propyl)-benzylamide] | < 100 | < 100 |
| CCC(F)(F)c1ccc(CNC(=O)[C@H]2CN(c3cnc4cncnc4n3)CCN2S(=O)(=O)c2ccc(C(C)(C)C)cc2)cc1 [Example 695, (R)-1-(4-tert-butyl-benzenesulfonyl)-4-pteridin-7-yl-piperazine-2-carboxylic acid 4-(1,1-difluoro-propyl)-benzylamide] | < 100 | < 100 |
| CCC(F)(F)c1ccc(CNC(=O)[C@H]2CN(c3cnc4cncnc4n3)CCN2S(=O)(=O)c2ccc(-c3ccccc3)cc2)cc1 [Example 696, (R)-1-(biphenyl-4-sulfonyl)-4-pteridin-7-yl-piperazine-2-carboxylic acid 4-(1,1-difluoro-propyl)-benzylamide] | < 100 | < 100 |
| CCC(F)(F)c1ccc(CNC(=O)[C@H]2CN(c3cnc4cncnc4n3)CCN2S(=O)(=O)c2ccc(Cl)cc2)cc1 [Example 697, (R)-1-(4-chloro-benzenesulfonyl)-4-pteridin-7-yl-piperazine-2-carboxylic acid 4-(1,1-difluoro-propyl)-benzylamide] | < 100 | < 100 |
| CCC(F)(F)c1ccc(CNC(=O)[C@H]2CN(c3cnc4cncnc4n3)CCN2S(=O)(=O)c2ccc([N+](=O)[O-])cc2)cc1 [Example 698, (R)-1-(4-nitro-benzenesulfonyl)-4-pteridin-7-yl-piperazine-2-carboxylic acid 4-(1,1-difluoro-propyl)-benzylamide] | < 100 | < 100 |
| CCCc1ccc(CNC(=O)[C@H]2CN(c3cnc(C(=O)O)cn3)CCN2S(=O)(=O)c2ccc(Br)s2)cc1 [Example 699, (R)-4-(5-bromo-thiophene-2-sulfonyl)-3-(4-propyl-benzylcarbamoyl)-3,4,5,6-tetrahydro-2H-[1,2′]bipyrazinyl-5′-carboxylic acid] | < 100 | < 100 |
| CCCc1ccc(CNC(=O)[C@H]2CN(c3cnc(C(=O)O)cn3)CCN2S(=O)(=O)c2ccc(C(C)(C)C)cc2)cc1 [Example 700, (R)-4-(4-tert-butyl-benzenesulfonyl)-3-(4-propyl-benzylcarbamoyl)-3,4,5,6-tetrahydro-2H-[1,2′]bipyrazinyl-5′-carboxylic acid] | < 100 | < 100 |
